The text below walks through data of patent US5847092A (Zambon Group S.p.A., priority 1994, dated 1998).

Structures are written as SMILES. ≈ marks a conversion by molar mass, not a printed value. Where two headings read alike, the source gives them in different places.

Data set [1] relates to Enterococcus faecalis ATCC 29212. In words: In vitro antibacterial activity, MIC, broth microdilution. As to conditions: Enterococcus faecalis, ATCC29212; E. faecalis ATCC 29212; MHB; 37° C., 18 hours; read-out: minimum inhibiting concentration MIC. It counts as cell-based. In a few lines:
(§1)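 MHB microdilution, double serial dilutions; +5% horse serum for streptococci. 37 °C, 18 h. MIC = lowest conc. with no visible growth, μg/ml. Roxithromycin, clarithromycin as reference macrolides.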
For orientation: Broth dilution looks for growth in wells or tubes with falling amounts of substance.

Data set [2] concerns Escherichia coli ATCC 25922. Described as above. The data set is classed as cell-based. As to conditions: Escherichia coli, ATCC25922; E. coli ATCC 25922; MHB; 37° C., 18 hours; read-out: minimum inhibiting concentration MIC. In a few lines:
as §1

Data set [3] has as its system Klebsiella pneumoniae ZC 2. The data set is described as above. The data set is classed as cell-based. As to conditions: Klebsiella pneumoniae, ZC2; K. pneumoniae ZC 2; MHB; 37° C., 18 hours; read-out: minimum inhibiting concentration MIC. In a few lines: as §1
Data set [4] concerns Staphylococcus aureus PV 14. The data set is described as above. The data set is classed as cell-based. The following applies: Staphylococcus aureus, PV14; S. aureus PV 14; MHB; 37° C., 18 hours; read-out: minimum inhibiting concentration MIC. In a few lines: as §1
Data set [5] deals with Streptococcus pneumoniae BS 3. The description is as above. It counts as cell-based. The following applies: Streptococcus pneumoniae, BS3; S. pneumoniae BS 3; MHB + 5% horse serum; 37° C., 18 hours; read-out: minimum inhibiting concentration MIC. A digest of the protocol:
as §1

Data set [6] relates to Streptococcus pneumoniae BS 4. The description is as above. As to conditions: Streptococcus pneumoniae, BS4; S. pneumoniae BS 4; MHB + 5% horse serum; 37° C., 18 hours; read-out: minimum inhibiting concentration MIC. The data set is classed as cell-based. In a few lines:
as §1

Data set [7] relates to Streptococcus pyogenes A 26. Described as above. The data set is classed as cell-based. As to conditions: Streptococcus pyogenes, A26; S. pyogenes A 26; MHB + 5% horse serum; 37° C., 18 hours; read-out: minimum inhibiting concentration MIC. A digest of the protocol: as §1
For data set [8], the system named is Streptococcus pyogenes C 203. The data set is described as above. The data set is classed as cell-based. The following applies: Streptococcus pyogenes, C203; S. pyogenes C 203; MHB + 5% horse serum; 37° C., 18 hours; read-out: minimum inhibiting concentration MIC. In a few lines:
as §1

The test system of data set [9] is Streptococcus pyogenes C 203. In words: In vivo antibacterial activity, experimental pulmonary infection in mouse. As to conditions: for ED50: Streptococcus pyogenes, C203, ip, 240 h, intraperitoneal single dose, read-out: average protecting dose PD50. Here is the method: The in vivo antibacterial activity of the compounds of formula (I), expressed as average protecting dose PD50 (mg/Kg), was evaluated by means of experimental pulmonary infection induced in mouse by Streptococcus pyogenes (example 23).
b) In vivo antibacterial activity
The therapeutical effectiveness, expressed as average protecting dose (PD50), of the considered compounds of formula (I) was evaluated by experimental pulmonary infection induced in mouse by Streptococcus pyogenesC 203.
Charles River albin mice (strain CD 1), of body weight comprised between 23-35 g, stabulated in groups of 6 for cage and normo-feeded with standard diet and water ad libitum were used. A suspension of S. pyogenes C 203 (corresponding about to 10^8 UFC) in tryptose broth (0.05 ml) was intranasally administered to each mouse anesthesized with a mixture of ethyl ether and chloroform.
The compounds under examination were intraperitoneally administered as a single dose, in 0.2% Tween suspension, 24 hours before or 1 hour after the infection.
Mice mortality observation was prolonged up to 10 days from the infection.
PD50 calculation, expressed as (mg/Kg), was carried out through the analysis of probit.
In vivo antibacterial activity, expressed as average protecting dose PD50 (mg/Kg), 24 hours before and 1 hour after the experimental pulmonary infection induced in mouse by Streptococcus pyogenes C 203, of the compounds 4, 10, 16-19, 21, 23, 26-27, 29-30, 33-35 and 38 and of the reference compounds Roxithromycin and Clarithromycin.

The conditions of data set [10]: literature; cited from earlier work.
For data set [11] the following is noted: literature; cited from earlier work. This is another data set of the same source.
Data set [12] concerns Gram-positive and Gram-negative bacteria. As to conditions: literature; cited from earlier work.
The next data set relates to eukaryotic parasites. The following applies: literature; cited from earlier work.

As for `CC[C@H]1OC(=O)[C@H](C)[C@@H](O[C@H]2C[C@@](C)(OC)[C@@H](O)[C@H](C)O2)[C@H](C)[C@@H](O[C@@H]2O[C@H](C)C[C@H](N(C)C)[C@H]2O)[C@](C)(O)C[C@@H](C)/C(=N\OCCNCCCCCCNCc2ccc(-c3ccccc3)cc2)[C@H](C)[C@@H](O)[C@]1(C)O` [Compound 30, Erythromycin A (E)-9-[0-[2-[6-[(biphenyl-4-yl)methylamino]hexylamino]ethyl]oxime]], the MIC in [1] is 1 µg/mL (≈ 0.946 µM); in data set [2] it was 1 µg/mL (≈ 0.946 µM); in data set [3] it was 2 µg/mL (≈ 1.89 µM); in [4], 0.5 µg/mL (≈ 0.473 µM); in [5], 0.0156 µg/mL; in [6] it was 0.0156 µg/mL. Besides, the MIC stood at 0.0156 µg/mL in [7] and 0.0078 µg/mL in data set [8]. The ED50 in data set [9] (1 hour after infection) and in data set [9] (24 hours before infection) was 19.3 mg/kg each time.

As for `CC[C@H]1OC(=O)[C@H](C)[C@@H](O[C@H]2C[C@@](C)(OC)[C@@H](O)[C@H](C)O2)[C@H](C)[C@@H](O[C@@H]2O[C@H](C)C[C@H](N(C)C)[C@H]2O)[C@](C)(O)C[C@@H](C)/C(=N\OCCNCCCCCCNCc2ccccc2[N+](=O)[O-])[C@H](C)[C@@H](O)[C@]1(C)O` [Compound 33, Erythromycin A (E)-9-[0-[2-[6-[(2-nitrophenyl)methylamino]hexylamino]ethyl]oxime]], the MIC stood at 2 µg/mL (≈ 1.95 µM) in data set [1]; 4 µg/mL (≈ 3.9 µM) in data set [2]; 16 µg/mL (≈ 15.6 µM) in [3]; 0.5 µg/mL (≈ 0.487 µM) in data set [4]; 0.0039 µg/mL in [5]; 0.0039 µg/mL in data set [6]. The MIC in data set [7] turned out to be 0.0039 µg/mL; in [8], 0.00097 µg/mL. The ED50 in data set [9] (1 hour after infection) was determined as 1.61 mg/kg; in [9] (24 hours before infection) it was 6.11 mg/kg.

For `CC[C@H]1OC(=O)[C@H](C)[C@@H](O[C@H]2C[C@@](C)(OC)[C@@H](O)[C@H](C)O2)[C@H](C)[C@@H](O[C@@H]2O[C@H](C)C[C@H](N(C)C)[C@H]2O)[C@](C)(O)C[C@@H](C)/C(=N\OCCNCCCCCCNCc2cccc([N+](=O)[O-])c2)[C@H](C)[C@@H](O)[C@]1(C)O` [Compound 34, Erythromycin A (E)-9-[0-[2-[6-[(3-nitrophenyl)methylamino]hexylamino]ethyl]oxime]], the MIC in [1] was 1 µg/mL (≈ 0.974 µM); in data set [2] it was 1 µg/mL (≈ 0.974 µM); in data set [3], 8 µg/mL (≈ 7.79 µM); in data set [4] it was 0.25 µg/mL (≈ 0.244 µM); in data set [5], 0.0019 µg/mL; in [6], 0.0039 µg/mL. For the same compound, the MIC is 0.0078 µg/mL in data set [7] and 0.0039 µg/mL in data set [8]. Also, the ED50 in [9] (1 hour after infection) was 1.88 mg/kg; in data set [9] (24 hours before infection) it was 6.8 mg/kg.

Regarding `CC[C@H]1OC(=O)[C@H](C)[C@@H](O[C@H]2C[C@@](C)(OC)[C@@H](O)[C@H](C)O2)[C@H](C)[C@@H](O[C@@H]2O[C@H](C)C[C@H](N(C)C)[C@H]2O)[C@](C)(O)C[C@@H](C)/C(=N\OCCNCCCCCCNCc2ccc([N+](=O)[O-])cc2)[C@H](C)[C@@H](O)[C@]1(C)O` [Compound 35], the MIC in data set [1] turned out to be 0.5 µg/mL (≈ 0.487 µM); in data set [2], 1 µg/mL (≈ 0.974 µM); in data set [3], 4 µg/mL (≈ 3.9 µM); in data set [4], 0.25 µg/mL (≈ 0.244 µM); in [5], 0.0039 µg/mL; in data set [6], 0.0039 µg/mL. Further, the MIC is 0.0078 µg/mL in data set [7] and 0.0019 µg/mL in [8]. The results for the ED50 in [9] (1 hour after infection) and in data set [9] (24 hours before infection) were 3 mg/kg and 6 mg/kg, respectively.

In the case of `CC[C@H]1OC(=O)[C@H](C)[C@@H](O[C@H]2C[C@@](C)(OC)[C@@H](O)[C@H](C)O2)[C@H](C)[C@@H](O[C@@H]2O[C@H](C)C[C@H](N(C)C)[C@H]2O)[C@](C)(O)C[C@@H](C)/C(=N\OCCN(C)CCCCCCN(C)Cc2ccccc2)[C@H](C)[C@@H](O)[C@]1(C)O` [Compound 38, Erythromycin A (E)-9-[0-[2-[N-methyl-6-(N'-methyl-N'-phenylmethylamino)hexylamino]ethyl]oxime]], the MIC in data set [1] was 8 µg/mL (≈ 7.93 µM); in data set [2] it was 8 µg/mL (≈ 7.93 µM); in data set [3], 32 µg/mL (≈ 31.7 µM); in data set [4] it was 0.5 µg/mL (≈ 0.495 µM); in data set [5] it was 0.0078 µg/mL; in data set [6] it was 0.0039 µg/mL. Also, the MIC was found to be 0.0156 µg/mL in data set [7] and 0.0078 µg/mL in data set [8]. The ED50 in [9] (1 hour after infection) and in data set [9] (24 hours before infection) was 11.8 mg/kg throughout.

For `CC[C@H]1OC(=O)[C@H](C)[C@@H](O[C@H]2C[C@@](C)(OC)[C@@H](O)[C@H](C)O2)[C@H](C)[C@@H](O[C@@H]2O[C@H](C)C[C@H](N(C)C)[C@H]2O)[C@](C)(O)C[C@@H](C)C(=NOCCN(CC)CC)[C@H](C)[C@@H](O)[C@]1(C)O` [Erythromycin A 9-[0-[(2-diethylamino)ethyl]oxime]], the “stability to the acids (in words)” value in [10] is reported as “superior stability to the acids”. In data set [11], the “pharmacokinetic properties / bioavailability (in words)” value is given as “better pharmacokinetic properties”. Moreover, the “spectrum of activity in vitro (in words)” value in [12] is “comparable to that of Erythromycin A”.

As to `CC[C@H]1OC(=O)[C@H](C)[C@@H](O[C@H]2C[C@@](C)(OC)[C@@H](O)[C@H](C)O2)[C@H](C)[C@@H](O[C@@H]2O[C@H](C)C[C@H](N(C)C)[C@H]2O)[C@](C)(O)C[C@@H](C)C(=NOCCN(C)C)[C@H](C)[C@@H](O)[C@]1(C)O` [Erythromycin A 9-[0-[(2-dimethylamino)ethyl]oxime]], the “stability to the acids (in words)” value in [10] is on record as “superior stability to the acids”. Also, the “pharmacokinetic properties / bioavailability (in words)” value in data set [11] is reported as “better pharmacokinetic properties”. The “spectrum of activity in vitro (in words)” value in data set [12] is on record as “comparable to that of Erythromycin A”.

With `CC[C@H]1OC(=O)[C@H](C)[C@@H](O[C@H]2C[C@@](C)(OC)[C@@H](O)[C@H](C)O2)[C@H](C)[C@@H](O[C@@H]2O[C@H](C)C[C@H](N(C)C)[C@H]2O)[C@](C)(O)C[C@@H](C)C(=O)[C@H](C)[C@@H](O)[C@]1(C)O` [Erythromycin A], the “spectrum of activity in vitro (in words)” value in [12] is given as “antibacterial activity mainly against Gram-positive microorganisms”. In the data set on eukaryotic parasites, the “activity against eukaryotic parasites (in words)” value is “active against eukaryotic parasites”.

`CC[C@H]1OC(=O)[C@H](C)[C@@H](O[C@H]2C[C@@](C)(OC)[C@@H](O)[C@H](C)O2)[C@H](C)[C@@H](O[C@@H]2O[C@H](C)C[C@H](N(C)C)[C@H]2O)[C@](C)(O)C[C@@H](C)/C(=N\OCOCCOC)[C@H](C)[C@@H](O)[C@]1(C)O` [Roxithromycin, Erythromycin A 9-[0-[(2-methoxyethoxy)methyl]oxime], reference compound]: the MIC in data set [1] was determined as 4 µg/mL (≈ 4.78 µM); in data set [2], 28 µg/mL (≈ 33.5 µM); in data set [3] it was 256 µg/mL (≈ 306 µM); in data set [4], 1 µg/mL (≈ 1.19 µM); in [5], 0.0312 µg/mL; in data set [6] it was 0.0625 µg/mL. Moreover, the MIC in [7] and in data set [8] was 0.0625 µg/mL throughout. The ED50 is 0.9 mg/kg in data set [9] (1 hour after infection) and above 25 mg/kg in [9] (24 hours before infection). Also, the “in vivo activity, pulmonary infection (in words)” value in data set [9] (administered 24 hours before the infection) was “inactive”. The “stability to the acids (in words)” value in [10] is given as “superior stability to the acids”. Besides, in data set [11], the “pharmacokinetic properties / bioavailability (in words)” value is on record as “better pharmacokinetic properties”. For the same compound, the “spectrum of activity in vitro (in words)” value in data set [12] is on record as “comparable to that of Erythromycin A”.
